According to patent US20230026232A1, “AHR INHIBITORS AND USES THEREOF” (Ikena Oncology, Inc., priority 2019, published 2023):
Entries after “also recorded” stand apart in the source; their conditions may differ.

How the values were obtained:
[1] = target: T1, AHR (Mus musculus, UniProt P30561); experiment: AHR-dependent Cyp1A1 expression (P450-Glo) in mouse Hepa1.6 cells stimulated with VAF347; format: cell-based; settings: read-out: IC50, AHR-dependent expression of Cyp1A1; murine Hepa1.6 cells, 2 μM VAF347, 24 hours, average
T1 sequence (P30561 10-805): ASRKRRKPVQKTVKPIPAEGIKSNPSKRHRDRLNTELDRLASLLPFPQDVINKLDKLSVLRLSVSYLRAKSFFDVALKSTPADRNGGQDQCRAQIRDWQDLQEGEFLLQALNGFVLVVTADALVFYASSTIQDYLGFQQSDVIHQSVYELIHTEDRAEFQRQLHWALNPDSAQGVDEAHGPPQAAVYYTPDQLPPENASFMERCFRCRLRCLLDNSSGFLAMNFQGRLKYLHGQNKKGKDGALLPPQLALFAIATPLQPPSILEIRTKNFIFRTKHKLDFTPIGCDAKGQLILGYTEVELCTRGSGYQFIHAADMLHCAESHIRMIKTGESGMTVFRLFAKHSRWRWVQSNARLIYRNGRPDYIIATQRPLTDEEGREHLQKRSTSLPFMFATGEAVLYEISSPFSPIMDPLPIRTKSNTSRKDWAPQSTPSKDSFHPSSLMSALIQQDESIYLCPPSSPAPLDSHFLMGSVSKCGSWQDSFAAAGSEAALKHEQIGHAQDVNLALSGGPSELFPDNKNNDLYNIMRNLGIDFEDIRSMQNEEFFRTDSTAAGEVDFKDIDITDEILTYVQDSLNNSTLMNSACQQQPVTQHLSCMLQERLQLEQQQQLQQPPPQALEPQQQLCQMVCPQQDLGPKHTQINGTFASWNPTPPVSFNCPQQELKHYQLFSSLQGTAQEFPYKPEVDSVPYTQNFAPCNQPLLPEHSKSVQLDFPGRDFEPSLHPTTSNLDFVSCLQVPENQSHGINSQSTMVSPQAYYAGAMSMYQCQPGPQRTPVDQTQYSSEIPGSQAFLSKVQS
Procedure: The ability of Compound A to inhibit AHR-dependent Cyp1A1 gene expression was examined in vitro by measuring changes in Cyp1A1 enzymatic activity in 2 rodent hepatoma cell lines following AHR agonist stimulation. Mouse Hepa1.6 and rat H411E hepatoma cells were treated with AHR agonists VAF347 and L-kynurenine, respectively, in the presence of Compound A at multiple concentrations for 24 hours. The inhibition of Cyp1A1 expression was subsequently evaluated by measuring Cyp1A1 enzyme activity using P450-Glo assays.

[2] = Nonclinical safety studies incl. 28-day GLP study in rat; format: in vivo; settings: rats
From the text: The nonclinical safety of Compound A has been evaluated in a series of pharmacological, single-dose and repeated-dose toxicological studies in rodent and non-rodent species including 28-day Good Laboratory Practice (GLP) studies in rat and monkeys. […] All changes were resolved or resolving after 2 weeks of dosing cessation, except for the testicular changes in rats. The nonclinical safety assessment from these studies supports clinical evaluation of Compound A in humans. The initial planned dose of Compound A for this study is 200 mg once daily (QD), based on evaluation of the Compound A nonclinical safety data.

[3] = Phase 1 dose-escalation study: safety; format: in vivo; settings: 200 mg, 400 mg, 800 mg, and 1200 mg QD, human patients, fed state
From the text: This is a first-in-human (FIH), single-arm, dose-escalation and expansion study to evaluate the safety, tolerability, PK, pharmacodynamics, and preliminary antitumor activity of Compound A administered orally in patients with advanced solid tumors and urothelial carcinoma. Subject enrollment and continuous safety assessment will be guided by a mTPI-2 design (Guo, 2017). Decisions for dose escalation and de-escalation will be made by a Safety Review Committee (SRC) comprised of the enrolling study Investigators and the Sponsor. To assess evidence of preliminary antitumor activity, a Simon 2-stage design (Simon, 1989) is used.
Toxicity is evaluated according to National Cancer Institute Common Terminology Criteria for Adverse Events (AEs) (NCI-CTCAE) v5.0. DLT events are defined herein. AEs will be assessed, and laboratory values (chemistry, hematology, coagulation, thyroid function and urinalysis as specified herein), vital signs, and 12-lead triplicate electrocardiograms (ECGs) are obtained to evaluate the safety and tolerability of Compound A.
A modified Toxicity Probability Interval (mTPI-2) design (Guo, 2017) with a target DLT rate of approximately 30% is applied for dose escalation and confirmation to determine the Compound A RP2D. Several dose levels of Compound A, planned from 200 mg QD to 1600 mg daily, are explored. […]

**Q.** Which results are given for `CC(C)c1cnn2c(N[C@@H]3CCc4[nH]c5ccccc5c4C3)nc(-c3cncc(F)c3)nc12` [Compound A, (R)—N-(2-(5-fluoropyridin-3-yl)-8-isopropylpyrazolo[1,5-a][1,3,5]triazin-4-yl)-2,3,4,9-tetrahydro-1H-carbazol-3-amine]?
**A.** IC50 [1]: 0.036 µM; noteworthy findings in nonclinical safety studies [2]: non-glandular stomach ulceration and edema; also recorded: seminiferous tubule degeneration and debris in the epididymis lumen; serious adverse events (SAEs) [3]: without any drug-related serious adverse events; also recorded: no serious adverse events
